Earlier results as cited in patent publication US20160051468A1, “Compositions for Prevention and/or Treatment of Gastrointestinal Imbalances in Digestive Disorders” (BRIGHT DRINKS INC., priority 2013, published 2016).

Legend:
TNFα = settings: LPS-stimulated macrophage cell line; dose-response fashion
NF-κB [1] = settings: human IEC lines; by inhibiting I-κB kinase activity
[2] = in vitro, compared with other tea catechins
DNA = settings: hydroxyl radical attack, in vitro
NF-κB [3] = settings: human colon carcinoma cell line

| Compound | minimum-inhibitory-concentration (MIC) for 90% of isolates (H. pylori; 110 mostly clinical isolates of H. pylori) [μg per mL] | concentration with bactericidal effect (H. pylori; H. pylori in vitro) [times the MIC] | concentration with bacteriostatic effect (H. pylori; H. pylori in vitro) [times the MIC] | TNFα protein levels (TNFα) | NF-κB activation (NF-κB [1]) | scavenging of superoxide anion and hydroxyl radical [2] | reduction of oxidative damage sustained by DNA (DNA) | suppression of NF-κB reporter activity, relative potency (NF-κB [3]) |
| --- | --- | --- | --- | --- | --- | --- | --- | --- |
| O=C(O[C@@H]1Cc2c(O)cc(O)cc2O[C@@H]1c1cc(O)c(O)c(O)c1)c1cc(O)c(O)c(O)c1 [EGCG, epigallocatechin gallate] | 32 | 4 | 2 | significant decrease | blocking NF-κB activation | most effective of all catechins | highly active |  |
| CCC(=O)O [Propionate] |  |  |  |  |  |  |  | equipotent |
| CC(=O)O [acetate] |  |  |  |  |  |  |  | slightly less effective |
